Data as given in US20250122182A1 (Isosterix, Inc., priority 2023, published 2025).

Biological target: Recombinant KAT6A/MOZ (488-778) protein (Homo sapiens (Human), UniProt Q92794)
Assay: KAT6A AlphaLISA Inhibition Screening Assay
Assay type: biochemical
Conditions: for inhibition at 1 µM: read-out: Average Kat6A % inhibition @ 1 μM; for inhibition at 1 µM / Average Kat6A % inhibition @ 1 μM: 1 μM test compound; for inhibition at 10 µM: read-out: Average Kat6A % inhibition @ 10 μM; for inhibition at 10 µM / Average Kat6A % inhibition @ 10 μM: 10 μM test compound
Description: The Kat6a inhibitory activity of test compounds was determined using an Alpha Screen-based detection method. The assay reactions were conducted in a volume of 10 μL in Alpha Plate, White 384 well plate (cat #6008280, Perkin Elmer). The enzymatic reactions were performed in assay buffer pH 8.0 (50 mM Tris-HCl, 0.1 mM EDTA, 0.01% Tween-20, 1 mM Dithiothreitol, 0.1% BSA (fatty acid free) and 330 nM TSA (Trichostatin A)). 10 μL reaction volume consisting of 25 nM of Recombinant KAT6A/MOZ (488-778) protein (Active motif, Catalog #81223), 400 nM Acetyl coenzyme A (Catalog #A2056, Sigma), 200 nM of Histone H3 peptide [(amino acids 1-21), biotin-labeled (BPS Biosciences, Catalog #52011)]. Test compounds were screened at different doses starting with 10 μM, 3 fold dilution and 10 point Dose response curve. Enzyme and compounds solution were pre-incubated in assay plate for 60 or 10 min at room temperature then substrate and Acetyl coenzyme A solution were added to the plate. After addition, the plate was sealed with adhesive seals and incubated for 120 minutes at room temperature.
After 120 minutes of incubation, […] of AlphaLISA anti-acetyl-Lysine acceptor beads (Perkin Elmer, Catalog #AL143C) were added to the plate and it was incubated for 60 minutes at room temperature. Then […] of Alpha Streptavidin donor beads (Perkin Elmer, Catalog #6760002S) were added to the plate which was further incubated for 60 minutes at room temperature. After incubation, the alpha signal was recorded by using Perkin Elmer Envision multi-mode reader. Percent inhibition of enzyme activity by test compounds were determined relative to vehicle control.

Chain of Recombinant KAT6A/MOZ (488-778) protein (Q92794 488-778): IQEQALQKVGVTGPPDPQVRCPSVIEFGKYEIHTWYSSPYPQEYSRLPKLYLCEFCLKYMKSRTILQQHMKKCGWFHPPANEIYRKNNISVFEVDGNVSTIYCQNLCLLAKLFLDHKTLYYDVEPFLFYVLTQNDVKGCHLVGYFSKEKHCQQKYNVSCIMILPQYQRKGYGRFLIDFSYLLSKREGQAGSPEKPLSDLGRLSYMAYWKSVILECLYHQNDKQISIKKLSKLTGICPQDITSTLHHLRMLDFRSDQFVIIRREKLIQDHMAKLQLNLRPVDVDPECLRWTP

SMILES | inhibition at 1 µM [%] | inhibition at 10 µM [%] | Average Kat6A % inhibition @ 1 μM [%] | Average Kat6A % inhibition @ 10 μM [%]
C=C(F)C(=O)N1Cc2cnn(Cc3cc(OC)c4c(NS(=O)(=O)c5cc(CC)ccc5OC)noc4c3)c2C1 [Syn. Ex. 13, 5-ethyl-N-(6-((5-(2-fluoroacryloyl)-5,6-dihydropyrrolo[3,4-c]pyrazol-1(4H)-yl)methyl)-4-methoxybenzo[d]isoxazol-3-yl)-2-methoxybenzenesulfonamide] | 99 | 100 |  | 
CCc1ccc(OC)c(S(=O)(=O)Nc2noc3cc(Cn4cc(CNC(=O)OCCNC(C)=O)cn4)cc(OC)c23)c1 [Syn. Ex. 48, 2-acetamidoethyl ((1-((3-((5-ethyl-2-methoxyphenyl)sulfonamido)-4-methoxybenzo[d]isoxazol-6-yl)methyl)-1H-pyrazol-4-yl)methyl)carbamate] | 96 | 100 |  | 
COC(=O)NCc1cnn(Cc2cc3onc(NS(=O)(=O)c4ccccc4OC)c3cc2OC)c1 [Syn. Ex. 145, methyl ((1-((5-methoxy-3-((2-methoxyphenyl)sulfonamido)benzo[d]isoxazol-6-yl)methyl)-1H-pyrazol-4-yl)methyl)carbamate] | 108 | 108 |  | 
C=C(F)C(=O)NCc1cnn(Cc2cc(OC)c3c(NS(=O)(=O)c4cc(CC)ccc4OCc4nc[nH]n4)noc3c2)c1 [Syn. Ex. 80, N-((1-((3-((2-((1H-1,2,4-triazol-3-yl)methoxy)-5-ethylphenyl)sulfonamido)-4-methoxybenzo[d]isoxazol-6-yl)methyl)-1H-pyrazol-4-yl)methyl)-2-fluoroacrylamide] | 100 | 100 |  | 
C=CC(=O)NCc1cnn(Cc2cc(OC)c3c(NS(=O)(=O)c4cc(CC)ccc4OC)noc3c2)c1 [Syn. Ex. 42, N-((1-((3-((5-ethyl-2-methoxyphenyl)sulfonamido)-4-methoxybenzo[d]isoxazol-6-yl)methyl)-1H-pyrazol-4-yl)methyl) acrylamide] | 93 | 100 |  | 
CCc1ccc(OCc2ccc(F)cc2)c(S(=O)(=O)Nc2noc3cc(Cn4cc(CNC(=O)OC)cn4)cc(OC)c23)c1 [Syn. Ex. 122, methyl ((1-((3-((5-ethyl-2-((4-fluorobenzyl)oxy)phenyl)sulfonamido)-4-methoxybenzo[d]isoxazol-6-yl)methyl)-1H-pyrazol-4-yl)methyl)carbamate] | 100 | 100 |  | 
C=C(F)C(=O)NCc1cnn(Cc2cc(OC)c3c(NS(=O)(=O)c4cc(CC)ccc4OCc4ncon4)noc3c2)c1 [Syn. Ex. 73, N-((1-((3-((2-((1,2,4-oxadiazol-3-yl)methoxy)-5-ethylphenyl)sulfonamido)-4-methoxybenzo[d]isoxazol-6-yl)methyl)-1H-pyrazol-4-yl)methyl)-2-fluoroacrylamide] | 100 | 100 |  | 
CCc1ccc(OCc2nn[nH]n2)c(S(=O)(=O)Nc2noc3cc(Cn4cc(CNC(=O)OC)cn4)cc(OC)c23)c1 [Syn. Ex. 71, methyl ((1-((3-((2-((2H-tetrazol-5-yl)methoxy)-5-ethylphenyl)sulfonamido)-4-methoxybenzo[d]isoxazol-6-yl)methyl)-1H-pyrazol-4-yl)methyl)carbamate] | 100 | 100 |  | 
C=C(F)C(=O)NCc1cnn(Cc2cc3onc(NS(=O)(=O)c4cc(CC)ccc4OC)c3c3c2CCCO3)c1 [Syn. Ex. 96, N-((1-((9-((5-ethyl-2-methoxyphenyl)sulfonamido)-3,4-dihydro-2H-chromeno[8,7-d]isoxazol-5-yl)methyl)-1H-pyrazol-4-yl)methyl)-2-fluoroacrylamide] | 100 | 100 |  | 
CCc1ccc(OC)c(S(=O)(=O)Nc2noc3cc(Cn4cc(CNS(=O)(=O)CCOC)cn4)cc(OC)c23)c1 [Syn. Ex. 18, 5-ethyl-2-methoxy-N-(4-methoxy-6-((4-(((2-methoxyethyl)sulfonamido)methyl)-1H-pyrazol-1-yl)methyl)benzo[d]isoxazol-3-yl)benzenesulfonamide] | 97 | 98 |  | 
CCc1ccc(OC)c(S(=O)(=O)Nc2noc3cc(Cn4cc(CNC(=O)[C@H](C)F)cn4)cc(OC)c23)c1 (single isomer, unassigned) [Syn. Ex. 47b] | 96 | 100 |  | 
COc1cc2c(cc1S(=O)(=O)Nc1noc3cc(Cn4cc(CNS(C)(=O)=O)cn4)cc(OC)c13)CCC2 [Syn. Ex. 24, 6-methoxy-N-(4-methoxy-6-((4-(methylsulfonamidomethyl)-1H-pyrazol-1-yl)methyl)benzo[d]isoxazol-3-yl)-2,3-dihydro-1H-indene-5-sulfonamide] | 99 | 100 |  | 
CC#CC(=O)N1Cc2cn(Cc3cc(OC)c4c(NS(=O)(=O)c5cc(CC)ccc5OC)noc4c3)nc2C1 [Syn. Ex. 12, N-(6-((5-(but-2-ynoyl)-5,6-dihydropyrrolo[3,4-c]pyrazol-2(4H)-yl)methyl)-4-methoxybenzo[d]isoxazol-3-yl)-5-ethyl-2-methoxybenzenesulfonamide] | 38 | 97 |  | 
CCc1ccc(OCc2cccnc2)c(S(=O)(=O)Nc2noc3cc(Cn4cc(CNC(=O)OC)cn4)cc(OC)c23)c1 [Syn. Ex. 123, methyl ((1-((3-((5-ethyl-2-(pyridin-3-ylmethoxy)phenyl)sulfonamido)-4-methoxybenzo[d]isoxazol-6-yl)methyl)-1H-pyrazol-4-yl)methyl)carbamate] | 100 | 100 |  | 
CCc1ccc(OC)c(S(=O)(=O)Nc2noc3cc(Oc4cc(CNC(=O)OC)ccn4)cc(OC)c23)c1 [Syn. Ex. 110, methyl ((2-((3-((5-ethyl-2-methoxyphenyl)sulfonamido)-4-methoxybenzo[d]isoxazol-6-yl)oxy)pyridin-4-yl)methyl)carbamate] | 9 | 58 |  | 
COC(=O)NCc1cnn(Cc2cc(OC)c3c(NS(=O)(=O)c4cc5c(cc4OC)CCO5)noc3c2)c1 [Syn. Ex. 126, methyl ((1-((4-methoxy-3-((5-methoxy-2,3-dihydrobenzofuran)-6-sulfonamido)benzo[d]isoxazol-6-yl)methyl)-1H-pyrazol-4-yl)methyl)carbamate] |  |  | 101 | 100
COC(=O)NCc1cnn(Cc2cc3onc(NS(=O)(=O)c4cc(C)cc5cccnc45)c3c3c2CCCO3)c1 [Syn. Ex. 132, methyl ((1-((9-((6-methylquinoline)-8-sulfonamido)-3,4-dihydro-2H-chromeno[8,7-d]isoxazol-5-yl)methyl)-1H-pyrazol-4-yl)methyl)carbamate] |  |  | 100 | 99
CC#CC(=O)NCc1cnn(Cc2cc(OC)c3c(NS(=O)(=O)c4cc(C)c(C)cc4OC)noc3c2)c1 [Syn. Ex. 27, N-((1-((4-methoxy-3-((2-methoxy-4,5-dimethylphenyl)sulfonamido)benzo[d]isoxazol-6-yl)methyl)-1H-pyrazol-4-yl)methyl)but-2-ynamide] | 100 | 100 |  | 
C=C(F)C(=O)NCc1cnn(Cc2cc(OC)c3c(NS(=O)(=O)c4cc(CC)ccc4OCCC#N)noc3c2)c1 [Syn. Ex. 84, N-((1-((3-((2-(2-cyanoethoxy)-5-ethylphenyl)sulfonamido)-4-methoxybenzo[d]isoxazol-6-yl)methyl)-1H-pyrazol-4-yl)methyl)-2-fluoroacrylamide] | 100 | 100 |  | 
C#CC(=O)NCc1cnn(Cc2cc(OC)c3c(NS(=O)(=O)c4cc(CC)ccc4OCC#N)noc3c2)c1 [Syn. Ex. 69, N-((1-((3-((2-(cyanomethoxy)-5-ethylphenyl)sulfonamido)-4-methoxybenzo[d]isoxazol-6-yl)methyl)-1H-pyrazol-4-yl)methyl)propiolamide] | 96 | 99 |  | 
C=C(F)C(=O)NCc1cnn(Cc2cc(OC)c3c(NS(=O)(=O)c4cc(CC)ccc4OCc4ccccc4)noc3c2)c1 [Syn. Ex. 92, N-((1-((3-((2-(benzyloxy)-5-ethylphenyl)sulfonamido)-4-methoxybenzo[d]isoxazol-6-yl)methyl)-1H-pyrazol-4-yl)methyl)-2-fluoroacrylamide] | 100 | 100 |  | 
CCc1ccc(OCC(=O)O)c(S(=O)(=O)Nc2noc3cc(Cn4cc(CNC(=O)OC)cn4)cc(OC)c23)c1 [Syn. Ex. 62, 2-(4-ethyl-2-(N-(4-methoxy-6-((4-(((methoxycarbonyl)amino)methyl)-1H-pyrazol-1-yl)methyl)benzo[d]isoxazol-3-yl)sulfamoyl)phenoxy)acetic acid] | 100 | 100 |  | 
COC(=O)NCc1cnn(Cc2cc(OC)c3c(NS(=O)(=O)c4cc5c(cc4OC)CCCC5)noc3c2)c1 [Syn. Ex. 139, methyl ((1-((4-methoxy-3-((3-methoxy-5,6,7,8-tetrahydronaphthalene)-2-sulfonamido)benzo[d]isoxazol-6-yl)methyl)-1H-pyrazol-4-yl)methyl)carbamate] |  |  | 119 | 114
